Experimental data reported in US11510886B2, “Metformin amino acid compounds and methods of using the same” (Laboratorios Silancs S.A. DE C.V., priority 2016, dated 2022).
Where a name gives a salt, the structure may show the parent alone.

How the values were obtained:
[1] = in vivo; conditions: female, Sprague Dawley, rat, plasma, po, 250 mg/kg
[2] = test system: RAW264.7 macrophages; experiment: GPBP and pro-IL-1β expression in stimulated RAW264.7 macrophages; type: cell-based
Experimental: FIG. 87. […] RAW264.7 macrophages cultured in DMEM, supplemented with 10% FBS and antibiotics, were treated with the indicated concentrations of either SLN1, SLN10 for 2 hours, after which LPS (1 μg/mL) was added to cultures. After incubating for 16 hours, the relative expression quantification (RQ) for GPBP was analyzed by RT-qPCR, using HPRT-1 as a normalizer and non-stimulated cells (cells) as a reference point.
FIG. 88. […] RAW264.7 macrophages were treated as shown in FIG. 87 and analyzed by flow cytometry, using for sample processing the Cytofix/Cytoperm (BD) kit, according to the manufacturer's instructions, as well as specific antibodies against GPBP (N27) and pro-IL-1β, conjugated with FITC and phycoerythrin (PE), correspondingly. The intensity of fluorescence (IF) emission median value is shown in arbitrary units (a.u.) for each of the series. Non-treated cells were used as a reference point and their corresponding isotype controls were carried out. The median is usually used in fluorescence quantitative studies to minimize the influence of extreme values that may distort the real mean value. Isotype controls were carried out to eliminate background, caused by nonspecific fluorescence; nonspecific antibodies from the same isotype of those used to detect GPBP and pro-IL-1β were used. […]

| Compound | AUC(0-t) [1] [ng·h/mL] | Cmax [1] [ng/mL] | Tmax [1] [min] | concentration at 0.5 h [1] [ng/mL] | concentration at 1 h [1] [ng/mL] | concentration at 2 h [1] [ng/mL] | concentration at 4 h [1] [ng/mL] | concentration at 8 h [1] [ng/mL] | concentration at 24 h [1] [ng/mL] | GPBP secretion induced by LPS and IC ([2]; FIG. 90) | induced expression of GPBP ([2]; LPS or LPS and IFN-γ, flow cytometry (FIGS. 88, 89)) |
| --- | --- | --- | --- | --- | --- | --- | --- | --- | --- | --- | --- |
| CN(C)C(=N)N=C(N)N [Metformin hydrochloride, metformin hydrochloride, reference compound] | 82000 | 16300 | 30 | 16300 ± 5100 | 14800 ± 5070 | 11900 ± 3240 | 6830 ± 1650 | 3140 ± 1050 | 190 ± 100 | – | – |
| metformin lysinate | – | – | – | – | – | – | – | – | – | less ability to reduce GPBP secretion | more efficiently inhibited by SLN10 |
